From US20260364056A1, “METHODS OF TREATMENT OF NON-PANCREATIC GASTROINTESTINAL CANCERS” (IONCTURA bv, priority 2023, published 2026)

Tests used:
[1] = test system: apoptosis-related proteins; assay: Human apoptosis antibody array; assay type: cell-based; conditions: 12 μM, 24 h, vs untreated cells
Protocol: The Human Apoptosis Antibody Array Kit (ab134001, Abcam) was used to detect the apoptosis pathway. Briefly, cells were lysed and each membrane was incubated at 4 °C overnight with 500 μg of total extracted protein. Membranes were then washed and incubated overnight at 4 °C with Biotin-conjugated Anti-Cytokines. After an incubation of the membranes with HRP-streptavidin for 2 h at room temperature, chemiluminescence was detected using ChemiDoc XRS+ (Bio-Rad, Hercules, CA, USA). The images were analysed with Image Lab 5.2.1.
The representative images were randomly selected from at least 3 independent experiments.
To further explore the activity of Compound 1 on gastrointestinal cancer cells, the effectiveness on cell apoptosis was investigated. Following incubation with Compound 1, cells underwent morphological changes of cell shrinkage and cytoplasmic vacuolization (FIG. 1C). An early event in apoptosis is represented by the loss of plasma membrane asymmetry, resulting in the translocation of phosphatidylserine (PS) from the inner to the outer plasma membrane leaflet. Exposed PS on the cell surface can be used to measure apoptosis by the binding with Annexin V. KKU-M213, HLE and HT-29 cells were incubated with increasing concentrations of Compound 1 (3, 9 and 12 μM). After 4 hours, cells were stained with a FITC-Annexin V antibody and fixed. […]

ATX = conditions: cited from earlier work
KKU-M213 cells [2] = assay: Annexin V staining (early apoptosis); assay type: cell-based, human; conditions: 3, 9 and 12 mM (so in the source), 4 h, serum-free, dose dependent
Protocol: (§1) For detection of early apoptosis the Annexin V-FITC kit (Miltenyi Biotech) was used. Cells were seeded and grown on Nunc Lab-Tek II Chamber Slide. After a wash with PBS, cells were incubated with Compound 1 3, 9 and 12 μM in serum-free medium. After […] cells were washed with Binding Buffer (BB) and stained with a solution of Annexin V-FITC antibody in BB for 15′. After 2 washes with BB the cells were fixed with a 4% paraformaldehyde solution and a coverslip was mounted onto the slide using a DAPI Ready Made Solution with Antifade (Merck). Images were acquired using a confocal microscope Nikon Eclipse Ti2 and analysed with image-J.
(§2) Fluorescence microscopy of cells treated with 3, 9 and 12 μM Compound 1 for 4 h and stained with Annexin V-FITC antibody. Annexin V positive cells are early apoptotic cells. Green fluorescence (Annexin V) was quantified using ImageJ software and correlated to DAPI blue fluorescence (nuclei).
(§3) To further explore the activity of Compound 1 on gastrointestinal cancer cells, the effectiveness on cell apoptosis was investigated. Following incubation with Compound 1, cells underwent morphological changes of cell shrinkage and cytoplasmic vacuolization (FIG. 1C). An early event in apoptosis is represented by the loss of plasma membrane asymmetry, resulting in the translocation of phosphatidylserine (PS) from the inner to the outer plasma membrane leaflet. Exposed PS on the cell surface can be used to measure apoptosis by the binding with Annexin V. KKU-M213, HLE and HT-29 cells were incubated with increasing concentrations of Compound 1 (3, 9 and 12 μM). After 4 hours, cells were stained with a FITC-Annexin V antibody and fixed. […] Moreover, a human apoptosis antibody array was used to identify the differential expression of 43 apoptosis-related proteins in cells treated with 12 μM Compound 1 for 24 h compared to untreated cells.

HLE cells = assay: Annexin V staining (early apoptosis); assay type: cell-based, human; conditions: 9 and 12 mM (so in the source), 4 h, serum-free; same effect = significantly (p<0.05) induced cell apoptosis
Protocol: as §1, §2, §3

HT-29 cells = assay: Annexin V staining (early apoptosis); assay type: cell-based, human; conditions: 3, 9 and 12 mM (so in the source), 4 h, serum-free, dose dependent
Protocol: as §1, §2, §3

pancreatic cancer = conditions: compared with gemcitabine; cited from earlier work
KKU-M213 cells [3] = assay: Cell viability assay (crystal violet); assay type: cell-based, human
Protocol: (§4) Human colorectal adenocarcinoma HT29 and Caco-2 cells, hepatocellular carcinoma HLE cells, cholangiocarcinoma RBE and KKU-M213 cells were purchased from the American […] Culture Collection (ATCC, Manassas, VA, USA). The hepatocellular carcinoma cell line HLF was purchased from JCRB Cell Bank (Japan). All cell lines were cultured in Dulbecco's Modified Eagle Medium (DMEM) supplemented with 10% foetal bovine serum (FBS), 1 mM pyruvate, 25 mM HEPES, 100 U/mL penicillin-streptomycin (all from Thermo Fisher Scientific, Waltham, MA, USA), and maintained in a humidified atmosphere at 37 °C containing 5% CO2. The medium was changed every three days. Oleoyl-LPA was purchased from Avanti Polar Lipids (Birmingham, AL).
(§5) Cells were seeded in 96-well plates at a density of 2000 cells/well in 10% FBS supplemented medium. After 24 h, medium was removed, the cells washed with PBS and cultured in the presence or absence of FBS and of different concentrations of Compound land LPA. After the time set for the experiment, the cells were fixed with a 4% PFA solution and stained with 0.02% crystal violet for 10 min. Subsequently the plates have been washed with water to remove excess dye. The cell-bound dye was redissolved in 1% SDS and the optical density was measured at λ=570 with a iMark™ Microplate Absorbance Reader (Bio-rad).
(§6) FIGS. 2A and 2B show the effect of Compound 1 on cell proliferation in the absence of FBS and in the presence of 10% FBS. […] Cells were grown in serum free culture medium or in presence of 10% FBS and incubated with increasing Compound 1 concentrations or with DMSO (control cells) for 24, 48 and 72 hours. After fixation, proliferation was assessed by crystal violet staining method. *P<0.05.
(§7) To evaluate the anti-proliferative/cytotoxic effects of Compound 1, six different cancer tumour cell lines were treated developed from cholangiocarcinoma (CCA), hepatocellular carcinoma (HCC) and colorectal cancer (CRC), with increasing concentration of the Compound 1 ranging from 10 μM up to 50 μM and at different times of incubation. After 24, 48 and 72 hours of drug treatment, attached cells were fixed and stained with crystal violet dye. This method is used to evaluate the effect of chemotherapeutics or other anti-cancer drugs on cell survival and proliferation. In the first experiments, Compound 1 was administered to cells in culture medium supplemented with 10% FBS. […] To test the hypothesis that the presence of serum, and consequently the endogenous LPA, could interfere with the Compound 1 activity, all the cancer cells were treated with Compound 1 at concentration ranging from 1 μM up to 12 μM, in the presence or absence of 10% FBS.

RBE cells = assay: Cell viability assay (crystal violet); assay type: cell-based, human
Protocol: as §4, §5, §6, §7

Caco2 cells = assay: Cell viability assay (crystal violet); assay type: cell-based, human
Protocol: as §4, §5, §6, §7

[4] = test system: Intrahepatic cholangiocarcinoma cancer cells (patient-derived organoid cultures); assay: Patient-derived organoid formation/growth; assay type: cell-based; conditions: 3, 9 and 12 μm (so in the source), 14 days, compared to vehicle, P<0.001
Protocol: To further explore the activity of Compound 1 on gastrointestinal cancer cells, the effectiveness on organoid formation was investigated. Intrahepatic cholangiocarcinoma cancer cells were isolated from tumour tissues, counted and embedded in 96-well plate with Matrigel. After 3D-model formation, three different concentrations of Compound 1 (3, 9 and 12 μm) were tested in these patient-derived organoid (PDO) cultures. […] Scale bars correspond to 50 μm, Data are presented as the mean±SD; ***P<0.001.

[5] = 1 μM up to 12 μM, 10% FBS, 24, 48 and 72 h
[6] = 3 to 12 μM, absence of FBS, evident after 48 h, stronger after 72 h
[7] = 30 to 50 μM, medium with 10% FBS

C[C@H](NC(=O)CCc1nc2cccnc2n1Cc1ccc(OC(F)(F)F)cc1)c1ccc(Cl)cc1 [Compound 1, N-[(S)-1-(4-chloro-phenyl)-ethyl]-3-[3-(4-trifluoromethoxy-benzyl)-3H-imidazo[4,5-b]pyridin-2-yl]-propionamide]
differential expression of apoptosis-related proteins [1]: upregulating pro-apoptosic proteins including Bim, Caspase-3 and -8, HTRA, DR6, Fas, p53 and SMAC | binding site on ATX (ATX): does not bind to the catalytic zinc region of ATX but binds to both the substrate pocket and the LPA carrier channel | induction of cell apoptosis (Annexin V) (KKU-M213 cells [2]): significantly (p<0.05) induced cell apoptosis | induction of cell apoptosis (Annexin V) (HLE cells): the same effect was seen | induction of cell apoptosis (Annexin V) (HT-29 cells): significantly (p<0.05) induced cell apoptosis | activity in pancreatic cancer model (pancreatic cancer): comparable activity with gemcitabine | effect on cell proliferation (KKU-M213 cells [3]; [5]): generally the same as the control | effect of FBS on activity of Compound 1 (KKU-M213 cells [3]; 9 μM, 72 h, 5% FBS): completely abolishing the Compound 1 effect | cell inhibition compared to control (KKU-M213 cells [3]; 9 μM, 72 h, no FBS): clear difference in the cell inhibition compared to the control | effect of FBS on activity of Compound 1 (KKU-M213 cells [3]; 9 μM, 72 h, starting at 2% FBS): significantly (p<0.05) reduced the activity of Compound 1 | cytotoxic effect / inhibition of cell proliferation (KKU-M213 cells [3]; [6]): significant (p<0.05) cytotoxic effect in a dose-dependent manner | cytotoxic effect (KKU-M213 cells [3]; [7]): significant (p<0.05) cytotoxic effect | effect on cell proliferation (RBE cells; [5]): generally the same as the control | cytotoxic effect / inhibition of cell proliferation (RBE cells; [6]): significant (p<0.05) cytotoxic effect in a dose-dependent manner | cytotoxic effect (RBE cells; [7]): significant (p<0.05) cytotoxic effect | effect on cell proliferation (Caco2 cells; [5]): generally the same as the control | cytotoxic effect / inhibition of cell proliferation (Caco2 cells; [6]): significant (p<0.05) cytotoxic effect in a dose-dependent manner | cytotoxic effect (Caco2 cells; [7]): significant (p<0.05) cytotoxic effect | organoid growth inhibition [4]: significant organoid growth inhibition
